Activity calls are given as the source filed them. The calls are words filed in the database; no cut-off is given here.
Key:
[1] = molecular target: T1, RAC-alpha serine/threonine-protein kinase (Homo sapiens, UniProt P31749); test: Antagonist activity at human AKT1-PH domain (1 to 121 residues) assessed as reduction of AKT1-PH interaction with PC/PE/PS/PI(3,4,5)P3 after 30 mins by competitive SPR analysis
[2] = Effect on membrane fluidity in PC/PE/PS liposome assessed as DPH probe anisotropy changes at 15 uM incubated for 30 mins by fluorescence anisotropic analysis; assay type: ADME; details: artificial membrane, 0.5 h
[3] = Cytotoxicity against human MDA-MB-231 cells assessed as inhibition of cell proliferation at 1 to 100 uM after 48 hrs by MTT assay; assay type: cell-based; details: read-out: %max
[4] = molecular target: T1, RAC-alpha serine/threonine-protein kinase; test: Antagonist activity at human AKT1-PH domain (1 to 121 residues) assessed as reduction of AKT1-PH interaction with PC/PE/PS/PI(3,4,5)P3 at 50 uM after 30 mins by competitive SPR analysis relative to control
[5] = Effect on membrane fluidity in PC/PE/PS liposome assessed as NBD-PE probe anisotropy changes at 15 uM incubated for 30 mins by fluorescence anisotropic analysis; assay type: ADME; details: artificial membrane, 0.5 h
[6] = molecular target: T1, RAC-alpha serine/threonine-protein kinase; test: Antagonist activity at GST-tagged human AKT1-PH domain (1 to 121 residues) assessed as reduction in PC/PE/PS/PI(3,4,5)P3/AKT1-PH interaction at 50 uM by liposome pull-down assay
[7] = molecular target: T2, Cytohesin-3 (Mus musculus) (UniProt O08967); test: Antagonist activity at mouse GRP1-PH domain (1 to 127 residues) assessed as reduction in PI(3,4,5)P3/GRP1-PH interaction at 50 uM after 30 mins by competitive SPR analysis relative to control
T2 sequence (whole entry): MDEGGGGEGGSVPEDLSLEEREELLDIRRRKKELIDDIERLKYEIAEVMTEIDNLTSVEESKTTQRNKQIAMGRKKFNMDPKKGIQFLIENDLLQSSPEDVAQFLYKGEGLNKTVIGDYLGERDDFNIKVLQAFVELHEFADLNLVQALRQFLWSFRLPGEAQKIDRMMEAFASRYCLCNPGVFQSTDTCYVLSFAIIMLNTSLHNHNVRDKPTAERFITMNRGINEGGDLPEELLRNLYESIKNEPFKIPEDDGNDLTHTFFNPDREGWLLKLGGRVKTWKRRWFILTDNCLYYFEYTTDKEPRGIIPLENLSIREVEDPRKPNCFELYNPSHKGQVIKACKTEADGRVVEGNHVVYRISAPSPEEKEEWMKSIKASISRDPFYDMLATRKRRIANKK

[8] = molecular target: T3, Tyrosine-protein kinase BTK (Homo sapiens, UniProt Q06187); test: Antagonist activity at human BTK-PH domain (2 to 170 residues) assessed as reduction in PI(3,4,5)P3/BTK-PH interaction after 30 mins by competitive SPR analysis
[9] = molecular target: T4, 1-phosphatidylinositol 4,5-bisphosphate phosphodiesterase delta-1 (Rattus norvegicus, UniProt P10688); test: Antagonist activity at rat PLCdelta1-PH domain assessed as reduction in PI(4,5)P2/PLCdelta1-PH interaction after 30 mins by competitive SPR analysis
T4 sequence (P10688 whole entry): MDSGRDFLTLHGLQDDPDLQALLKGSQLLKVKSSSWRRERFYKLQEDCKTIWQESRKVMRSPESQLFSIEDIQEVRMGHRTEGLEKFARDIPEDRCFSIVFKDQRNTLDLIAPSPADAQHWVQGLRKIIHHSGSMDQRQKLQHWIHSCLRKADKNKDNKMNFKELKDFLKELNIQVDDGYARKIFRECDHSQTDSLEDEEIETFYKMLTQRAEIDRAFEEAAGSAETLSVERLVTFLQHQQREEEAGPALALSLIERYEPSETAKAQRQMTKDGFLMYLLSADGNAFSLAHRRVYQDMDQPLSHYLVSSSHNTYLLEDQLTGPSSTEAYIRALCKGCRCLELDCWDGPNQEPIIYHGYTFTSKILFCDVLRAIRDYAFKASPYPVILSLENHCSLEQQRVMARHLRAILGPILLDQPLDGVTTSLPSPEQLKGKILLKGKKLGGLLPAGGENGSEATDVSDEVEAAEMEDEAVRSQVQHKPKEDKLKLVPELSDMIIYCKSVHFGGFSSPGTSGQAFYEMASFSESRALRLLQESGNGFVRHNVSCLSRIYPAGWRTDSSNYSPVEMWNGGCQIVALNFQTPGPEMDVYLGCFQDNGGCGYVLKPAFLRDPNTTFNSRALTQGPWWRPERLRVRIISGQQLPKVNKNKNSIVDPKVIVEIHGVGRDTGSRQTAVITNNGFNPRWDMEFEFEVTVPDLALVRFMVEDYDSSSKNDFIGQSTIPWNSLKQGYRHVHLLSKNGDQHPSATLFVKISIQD

[10] = molecular target: Pleckstrin homology domain-containing family A member 1 (Homo sapiens, UniProt Q9HB21); test: Antagonist activity at human Tapp1-PH domain (180 to 305 residues) assessed as reduction in PI(3,4)P2/Tapp1-PH interaction after 30 mins by competitive SPR analysis
Cytohesin-3 = molecular target: T5, Cytohesin-3 (Mus musculus, UniProt O08967); test: Antagonist activity at mouse GRP1-PH domain (1 to 127 residues) assessed as reduction in PI(3,4,5)P3/GRP1-PH interaction after 30 mins by competitive SPR analysis
T5 sequence (O08967 whole entry): T2 sequence (whole entry)

[11] = Cytotoxicity against human MDA-MB-231 cells assessed as inhibition of cell proliferation at 100 uM after 48 hrs by MTT assay; assay type: cell-based
[12] = molecular target: T1, RAC-alpha serine/threonine-protein kinase; test: Binding affinity to human AKT1-PH domain assessed as entropy change by isothermal titration calorimetric analysis
[13] = molecular target: T1, RAC-alpha serine/threonine-protein kinase; test: Binding affinity to human AKT1-PH domain assessed as enthalpy change by isothermal titration calorimetric analysis
[14] = molecular target: T1, RAC-alpha serine/threonine-protein kinase; test: Antagonist activity at human AKT1-PH domain (1 to 121 residues) assessed as reduction in PI(3,4,5)P3/AKT1-PH interaction by FRET analysis
[15] = molecular target: T1, RAC-alpha serine/threonine-protein kinase; test: Binding affinity to human AKT1-PH domain assessed as change in beta-sheet content at 1:3 molar ratio of protein to compound by CD spectra analysis
[16] = Effect on surface charge of PC/PE/PS/PI(3,4,5)P3 liposome by measuring zeta-potential by light scattering spectrometric analysis; assay type: physicochemical; details: artificial membrane
[17] = molecular target: T3, Tyrosine-protein kinase BTK; test: Antagonist activity at human BTK-PH domain (2 to 170 residues) assessed as reduction in PI(3,4,5)P3/BTK-PH interaction at 50 uM after 30 mins by competitive SPR analysis relative to control
[18] = molecular target: T1, RAC-alpha serine/threonine-protein kinase; test: Induction of human AKT1-PH aggregration assessed as mean hydrodynamic diameter after 10 mins dynamic light scattering assay
[19] = molecular target: T1, RAC-alpha serine/threonine-protein kinase; test: Inhibition of AKT1 phosphorylation at Thr-308 in human MDA-MB-231 cells at 25 uM after 48 hrs by immunoblot analysis; assay type: cell-based

T1 sequence (P31749 whole entry, the tested form may be a part): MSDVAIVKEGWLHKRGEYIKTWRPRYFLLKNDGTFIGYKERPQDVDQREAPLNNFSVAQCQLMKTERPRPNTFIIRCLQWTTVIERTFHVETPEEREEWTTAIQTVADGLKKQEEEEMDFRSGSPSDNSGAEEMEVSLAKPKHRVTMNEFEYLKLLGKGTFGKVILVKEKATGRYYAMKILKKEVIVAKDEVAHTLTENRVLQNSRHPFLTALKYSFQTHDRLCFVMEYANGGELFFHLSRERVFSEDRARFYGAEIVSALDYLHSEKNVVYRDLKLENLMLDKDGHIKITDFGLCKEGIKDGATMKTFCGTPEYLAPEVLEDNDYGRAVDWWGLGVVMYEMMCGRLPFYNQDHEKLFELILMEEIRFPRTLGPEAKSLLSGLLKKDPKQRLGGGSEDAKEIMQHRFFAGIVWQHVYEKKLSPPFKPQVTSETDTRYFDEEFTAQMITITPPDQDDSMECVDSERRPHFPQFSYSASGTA
T3 sequence (Q06187 whole entry, the tested form may be a part): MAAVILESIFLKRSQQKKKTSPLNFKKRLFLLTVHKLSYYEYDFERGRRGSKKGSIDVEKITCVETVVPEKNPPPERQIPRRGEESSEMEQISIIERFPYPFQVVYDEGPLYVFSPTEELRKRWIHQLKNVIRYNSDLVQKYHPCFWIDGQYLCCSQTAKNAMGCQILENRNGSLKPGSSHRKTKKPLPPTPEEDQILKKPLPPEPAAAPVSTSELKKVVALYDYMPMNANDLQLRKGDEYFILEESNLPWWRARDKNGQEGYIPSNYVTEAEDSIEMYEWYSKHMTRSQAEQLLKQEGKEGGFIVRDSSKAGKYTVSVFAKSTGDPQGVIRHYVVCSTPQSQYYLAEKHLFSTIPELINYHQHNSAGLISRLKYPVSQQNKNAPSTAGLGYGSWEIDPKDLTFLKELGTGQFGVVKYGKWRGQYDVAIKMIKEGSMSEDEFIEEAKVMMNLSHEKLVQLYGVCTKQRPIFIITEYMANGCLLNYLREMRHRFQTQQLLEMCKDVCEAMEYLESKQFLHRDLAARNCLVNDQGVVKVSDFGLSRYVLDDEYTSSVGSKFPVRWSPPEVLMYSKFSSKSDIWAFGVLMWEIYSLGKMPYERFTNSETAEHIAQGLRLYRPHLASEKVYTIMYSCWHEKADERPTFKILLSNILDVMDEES
Pleckstrin homology domain-containing family A member 1, sequence (Q9HB21 whole entry, the tested form may be a part): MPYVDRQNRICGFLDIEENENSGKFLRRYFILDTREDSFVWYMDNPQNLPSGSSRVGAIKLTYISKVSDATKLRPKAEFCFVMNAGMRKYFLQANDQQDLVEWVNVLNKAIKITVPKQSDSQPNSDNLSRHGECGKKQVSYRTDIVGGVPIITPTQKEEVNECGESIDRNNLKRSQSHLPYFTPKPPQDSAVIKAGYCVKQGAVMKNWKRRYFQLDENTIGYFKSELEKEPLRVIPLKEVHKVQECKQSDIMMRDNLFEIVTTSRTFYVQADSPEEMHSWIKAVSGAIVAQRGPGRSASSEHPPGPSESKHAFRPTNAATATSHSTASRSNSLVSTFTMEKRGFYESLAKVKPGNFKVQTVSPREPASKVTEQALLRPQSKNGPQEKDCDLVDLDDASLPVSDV

SMILES | IC50 [1] [µM] | Activity [2] | inhibition [4] [%] | Activity [5] | inhibition [7] [%] | IC50 [8] [µM] | IC50 (Cytohesin-3) [µM] | inhibition [17] [%] | Emax at 48 h [3] [%] | inhibition [6] | IC50 [9] [µM] | IC50 [10] [µM] | inhibition [1] | Activity [12] | Activity [13] | inhibition [14] | Activity [15] | Activity [16] | Activity [18] [nm] | further results
N=C(N)NC(=N)N/C(=N/O)c1nonc1N | 1.85 | Not Active | 95 | Active | 56 | 10.9 | 24.9 | 40 |  | Active | 54 | 28 | Dose-dependent effect | Active | Active | Dose-dependent effect | Active | Not Active | 190 | inhibition at 48 h, 100 µM [11]: 10%
N=C(N/C(=N/O)c1nonc1N)c1ccccc1 | 7.19 | Not Active | 54 | Active | 55 |  | 11.5 |  | 20 |  |  |  |  |  |  |  |  |  |  | 

Further molecules by falling IC50 [1], results first:

IC50 [1] [µM] | Activity [2] | inhibition [4] [%] | Activity [5] | inhibition [7] [%] | IC50 [8] [µM] | IC50 (Cytohesin-3) [µM] | inhibition [17] [%] | SMILES | Emax at 48 h [3] [%] | inhibition [6] | IC50 [9] [µM] | IC50 [10] [µM] | inhibition [1] | Activity [12] | Activity [13] | inhibition [14] | Activity [15] | Activity [16] | Activity [18] [nm] | further results
16.4 | Not Active | 80 | Active |  |  |  |  | N=C(N/C(=N/O)c1nonc1N)c1ccccc1Br | 20 |  |  |  |  |  |  |  |  |  |  | 
8.61 | Not Active | 74 | Active | 59 | 3.18 | 16.6 | 79 | N=C(N/C(=N/O)c1nonc1N)c1ccccc1N | 20 |  |  |  |  |  |  |  |  |  |  | 
3.23 | Not Active | 92 | Active | 67 | 46.5 | 11.5 | 11 | N=C(N/C(=N/O)c1nonc1N)N1CCCN=C1N | 20 | Active | 28 | 5 | Dose-dependent effect | Active | Active | Dose-dependent effect | Active | Not Active | 190 | inhibition [19]: Active
